We go through two molecules from PMC8348766, “Enhancement of Anti-Tumoral Immunity by β-Casomorphin-7 Inhibits Cancer Development and Metastasis of Colorectal Cancer” (International Journal of Molecular Sciences, 2021).

Data set [1] deals with T1, CD10 (Homo sapiens, UniProt P08473). Kind of data set: Suppression of CD10-mediated BCM degradation by thiorphan. The format is biochemical. Particulars: TOP 1 μM in combination with CD10; 125I-labeled BCM 50 μg.
The conditions of data set [2]: cited from earlier work. The source says: BCM also acts on the immune system. […] Conversely, BCM suppresses lymphocyte proliferation at low concentrations, but promotes it at high concentrations above 10^−7 M [18] by activating the T cell helper (Th)-2 pathway, which induces an inflammatory response in the gut. […] Therefore, under such physiological conditions, BCM presents only in low concentrations and might suppress the immune syst ... || The CD10 that we examined in this study has various alternative names, including membrane metalloendopeptidase, common acute lymphocytic leukemia antigen, neprilysin, neutral endopeptidase, enkephalinase, and atriopeptidase [NCBI, OMIM]. CD10 is known to degrade short peptides such as natriuretic peptides, angiotensin II, bradykinin, apelins, substance P, and adrenomedullin [38]. CD10 expression is widespread in the intestinal mucosa. Incubation of BCM with brush border of the intestinal mucosa degrades 95% of BCM in 24 h.

Data set [3] deals with T1, CD10. Kind of data set: Degradation of 125I-labeled BCM by CD10. The format is in vitro ADME. The method, then:
Figure 1 Effect of BCM on spleen cells and degradation of BCM by CD10. (A) Effect of BCM on subpopulations of spleen cells. Spleen cells of BALB/c mice were treated with BCM (0.1 μg/mL) for 48 h. Differentiation markers were examined by ELISA. (B) Effect of CD10 on degradation of BCM. ^125I-labeled BCM (50 μg) was incubated with CD10 for 16 h. Intact BCM bound to anti-BCM antibody and degraded peptides were separated with electrophoresis and detected by autoradiography. […] (E) Time course of degradation of BCM by CD10. ^125I-labeled BCM (50 μg) was incubated with CD10 (60 μg) and TOP (1 μM). (F) Effect of degraded BCM on subset of spleen cells. Error bar, standard deviation from three independent trials. BCM, β-casomorphin-7; cluster of differentiation; ELISA, enzyme-linked immunosorbent assay; Treg, regulatory T cell; tyr-pro, 1st and 2nd amino acids of BCM; Ab, anti-BCM antibody; TOP, thiorphan.
The N-terminal tyrosine of BCM was labeled with ^125I, and then treated with CD10, followed by treatment with an anti-BCM antibody and electrophoresis in a 15–25% polyacrylamide gel. […] It is considered that a short fragment of tyr-pro at the N-terminal of ^125I-labeled BCM was cleaved. […] In contrast, no decrease in intact BCM was observed when it was additionally treated with TOP. Of note, the CD10 degradation product of BCM had no effect on the lymphocyte subset (Figure 1F).
BCM was purchased from Sigma. Di-amino acid peptide (tyr-pro; 1st and 2nd amino acids of BCM) was synthesized by Peptide Institute Inc. (Ibaraki, Japan). BCM and the tyr-pro peptide were labeled by chloramine-T method with ^125I (J-RAM, Tokyo, Japan) using Pierce™ iodination beads (Thermo Fisher). Labeled BCM was incubated with CD10 in neutral peptidase assay buffer (40 mM Tris-HCl pH 7.1, 4 mM MgCl2, 0.5 mM ZnCl2) for 16 h. Thereafter, the solution was incubated with anti-BCM antibody (Abnova, Taipei City, Taiwan) at 37 °C for 2 h. […] The radioactivity of the solution was also measured by a fluid scintillation counter (LSC-8000, Hitachi, Tokyo, Japan).

No end group written: not given here.

T1 sequence (P08473 whole entry, species assumed): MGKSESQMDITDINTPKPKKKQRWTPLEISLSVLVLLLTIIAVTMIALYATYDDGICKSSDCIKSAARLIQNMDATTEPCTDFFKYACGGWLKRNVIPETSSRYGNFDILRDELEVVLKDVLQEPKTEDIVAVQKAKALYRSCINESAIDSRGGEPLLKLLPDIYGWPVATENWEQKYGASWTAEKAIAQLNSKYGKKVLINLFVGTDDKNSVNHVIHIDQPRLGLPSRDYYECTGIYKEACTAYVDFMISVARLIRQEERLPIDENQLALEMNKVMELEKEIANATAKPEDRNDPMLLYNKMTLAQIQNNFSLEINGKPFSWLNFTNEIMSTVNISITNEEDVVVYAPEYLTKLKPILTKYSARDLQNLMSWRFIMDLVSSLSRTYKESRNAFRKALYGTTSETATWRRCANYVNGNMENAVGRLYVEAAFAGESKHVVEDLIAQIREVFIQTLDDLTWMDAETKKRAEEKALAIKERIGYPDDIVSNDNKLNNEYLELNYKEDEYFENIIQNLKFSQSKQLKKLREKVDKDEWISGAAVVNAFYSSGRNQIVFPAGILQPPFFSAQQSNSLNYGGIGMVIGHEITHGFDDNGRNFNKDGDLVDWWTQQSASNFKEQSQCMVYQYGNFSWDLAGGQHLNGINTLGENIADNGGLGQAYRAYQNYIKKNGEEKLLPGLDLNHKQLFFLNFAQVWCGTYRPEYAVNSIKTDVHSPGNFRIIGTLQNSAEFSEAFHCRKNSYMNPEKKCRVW

`O=C(O)CNC(=O)C(CS)Cc1ccccc1` (stereo not drawn) [TOP, thiorphan]: in data set [1], the “degradation of BCM by CD10 in presence of TOP” value was “completely suppressed”.

YPFPGPI [BCM, β-Casomorphin-7]: the “fraction of BCM degraded on incubation with brush border of the intestinal mucosa” value in data set [2] (24 h) was 95%. Also, the “fraction of BCM degraded by digestive juice and jejunal brush border” value in data set [2] is given as 95%. Moreover, the “degraded fragment observed after CD10 treatment” value in data set [3] (125I label on N-terminal tyrosine, position in polyacrylamide gel compared with labeled marker) is given as “tyr-pro”. Also, the “change in intact BCM over time with CD10 plus TOP” value in data set [3] (CD10 60 μg/mL + TOP 1 μM, time course, 125I-labeled BCM 50 μg) is reported as “no decrease”. Further, the “time after which intact BCM completely disappeared” value in data set [3] (CD10 60 μg/mL, time course, 125I-labeled BCM 50 μg, Tris-HCl pH 7.1 buffer, electrophoresis, autoradiography) is 24 h.
